The test system of test [1] is MDA-MB-231. Put plainly: Induction of ferroptosis in human MDA-MB-231 cells assessed as reduction in cell viability at 10 to 50 uM incubated for 24 hrs by MTT assay. The class given is functional, cell-based. Particulars: dose 10-50 µM. In general terms: Tetrazolium dyes change colour on reduction, which living cells bring about.
Test [2] deals with T1, Heme oxygenase 1 (Homo sapiens) (UniProt P09601).
T1 sequence (whole entry): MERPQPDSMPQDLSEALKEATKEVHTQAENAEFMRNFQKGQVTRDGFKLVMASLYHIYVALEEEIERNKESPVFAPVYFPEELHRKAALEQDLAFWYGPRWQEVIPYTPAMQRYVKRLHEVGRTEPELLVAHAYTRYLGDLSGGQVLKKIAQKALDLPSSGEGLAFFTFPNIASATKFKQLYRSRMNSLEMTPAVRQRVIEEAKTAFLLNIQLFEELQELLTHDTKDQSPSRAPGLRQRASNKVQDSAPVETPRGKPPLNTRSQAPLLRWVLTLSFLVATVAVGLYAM
Put plainly: Induction of HO-1 enzymatic activity in human MDA-MB-231 cells assessed as increase in bilirubin formation at 10 uM incubated for 18 hrs in presence of NADPH by double-beam spectrophotometer analysis. It counts as cell-based. Particulars: filed as activator.

For test [3], the system named is MDA-MB-231. Put plainly: Induction of ferroptosis in human MDA-MB-231 cells assessed as reduction in cell viability at 50 uM incubated for 48 hrs in presence of ferrostatin-1 by MTT assay. The class given is functional, cell-based.
Test [4] has as its system MDA-MB-231. Put plainly: Cytotoxicity against human MDA-MB-231 cells assessed as reduction in cell viability at 50 uM incubated for 48 hrs by MTT assay. The class given is functional, cell-based.
Test [5] concerns MDA-MB-231. Put plainly: Cytotoxicity against human MDA-MB-231 cells assessed as reduction in cell viability at 50 uM incubated for 48 hrs in presence of ferrostatin-1 by MTT assay. The class given is functional, cell-based.
Test [6] deals with MDA-MB-231. Put plainly: Cytotoxicity against human MDA-MB-231 cells assessed as reduction in cell viability at 50 uM incubated for 48 hrs in presence of Z-VAD-FMK by MTT assay. It counts as functional, cell-based.
Test [7] relates to MDA-MB-231. Put plainly: Induction of ferroptosis in human MDA-MB-231 cells assessed as decrease in GSH content at 10 to 50 uM incubated for 24 hrs by spectrophotometric assay. It counts as functional, cell-based. Particulars: dose 10-50 µM.
Test [8] concerns MDA-MB-231. Put plainly: Induction of ferroptosis in human MDA-MB-231 cells assessed as increase in intracellular Fe2+ level at 10 to 50 uM incubated for 18 hrs by colorimetric assay. The class given is functional, cell-based. Conditions: dose 10-50 µM.
The test system of test [9] is MDA-MB-231. Put plainly: Induction of ferroptosis in human MDA-MB-231 cells assessed as increase IL-6 level at 50 uM incubated for 5 to 18 hrs by ELISA analysis. It counts as functional, cell-based. Particulars: time 5-18 hrs.
In test [10] the test system is MDA-MB-231. Put plainly: Upregulation of HO-1 expression in human MDA-MB-231 cells at 10 uM incubated for 18 hrs by ELISA analysis. The class given is functional, cell-based. (An ELISA detects its analyte on a solid surface through an enzyme-linked reagent.)
Test [11] deals with MDA-MB-231. Put plainly: Induction of ferroptosis in human MDA-MB-231 cells assessed as increase in lipid hydroperoxide level at 50 uM incubated for 30 mins in presence of ferrostatin-1. It counts as functional, cell-based.
The test system of test [12] is MDA-MB-231. Put plainly: Induction of ferroptosis in human MDA-MB-231 cells assessed as reduction in GSH content at 50 uM incubated for 20 mins in presence of ferrostatin-1 by spectrophotometric assay. The class given is functional, cell-based.
The subject of test [13] is MDA-MB-231. Put plainly: Induction of ferroptosis in human MDA-MB-231 cells assessed as effect on IL-6 level at 50 uM incubated for 5 to 18 hrs in presence of ferrostatin-1 by ELISA analysis. Particulars: time 5-18 hrs. The class given is functional, cell-based.
The test system of test [14] is MDA-MB-231. Put plainly: Induction of ROS production in human MDA-MB-231 cells assessed as increase in fluorescence intensity measured for 1 to 6 hrs. Particulars: time 1-6 hrs. The class given is functional, cell-based.
Test [15] has as its system Cell membrane. Put plainly: Induction of mitochondrial membrane dysfunction in human MDA-MB-231 cells assessed as increase in green fluorescence intensity incubated for 6 hrs by JC-1 staining based fluorescence microscopic analysis. The class given is cell membranes.
Test [16] has as its system Cell membrane. Put plainly: Induction of mitochondrial membrane dysfunction in human MDA-MB-231 cells assessed as decrease in red fluorescence intensity incubated for 6 hrs by JC-1 staining based fluorescence microscopic analysis. It counts as cell membranes.

Consider 12 compounds from ChEMBL document CHEMBL5634189, “Synthesis and in Vitro Evaluation of CAPE Derivatives as Ferroptosis Inducers in Triple Negative Breast Cancer” (ACS Med Chem Lett, 2024).

Calls of active or inactive are those of the source. No cut-off for these calls is given here. Where a SMILES comes first, the peptide text is derived from it. The star is where a group is joined. Cbz = O=C(OCc1ccccc1)*; CH2F = FC*

Turning to `COc1ccc(CCOC(=O)/C=C/c2ccccc2)cc1OC`, the result (in the test with MDA-MB-231 [1]; in test [2]) was Active.

As to `O=C(/C=C/c1ccc(O)c(O)c1)OCCc1ccc2c(c1)OCO2`, the result (in the test on MDA-MB-231 [1]; in test [2]) was Active.

`COc1cc(CCOC(=O)/C=C/c2ccc(O)c(O)c2)cc(OC)c1`: the outcome (in the test on MDA-MB-231 [1]; in [2]; in the test with MDA-MB-231 [3]) was Active.

Regarding `COc1ccc(CCOC(=O)/C=C/c2ccc(O)c(O)c2)c(OC)c1`, the outcome (with MDA-MB-231 [1]; in test [2]) was Active.

Take `O=C(/C=C/c1ccc(O)c(O)c1)OCCc1c[nH]c2ccccc12`: the outcome (with MDA-MB-231 [1]; in [2]) was Active.

As to `O=C(/C=C/c1ccc(O)c(O)c1)OCCc1ccccc1`, the outcome with MDA-MB-231 [4], in the test on MDA-MB-231 [5], in the test on MDA-MB-231 [6], in the test with MDA-MB-231 [7], in the test on MDA-MB-231 [8] and in the test on MDA-MB-231 [9] was Active. Moreover, the outcome in test [2] was Active.

`CCOC(=O)c1ccc(NC2CCCCC2)c(N)c1`: the outcome in the test with MDA-MB-231 [4] was Active.

Take `COc1ccc(CCOC(=O)/C=C/c2ccc(O)c(O)c2)cc1OC`: the result (with MDA-MB-231 [1]; in [2]; in the test with MDA-MB-231 [3]) was Active.

For `O=C(/C=C/c1ccccc1)OCCc1c[nH]c2ccccc12`, the result (in the test with MDA-MB-231 [1]; in the test on MDA-MB-231 [10]; in test [2]; in the test on MDA-MB-231 [3]; in the test on MDA-MB-231 [11]; in the test on MDA-MB-231 [12]) was Active. The outcome with MDA-MB-231 [14], with Cell membrane [15] and in the test on Cell membrane [16] was Active. Moreover, the result in the test with MDA-MB-231 [13] was inactive.

For the compound `COc1ccc(CCOC(=O)/C=C/c2ccc(O)c(O)c2)cc1`, the outcome (in the test with MDA-MB-231 [1]; in test [2]) was Active.

In the case of `CC(C)[C@H](NC(=O)OCc1ccccc1)C(=O)N[C@@H](C)C(=O)N[C@@H](CC(=O)O)C(=O)CF` (Cbz-Val-Ala-Asp-CH2F), in the test on MDA-MB-231 [4], the outcome was Active.

With `COc1ccc(OC)c(CCOC(=O)/C=C/c2ccc(O)c(O)c2)c1`, the outcome (in the test with MDA-MB-231 [1]; in test [2]) was Active.
